≈ marks a conversion by molar mass, not a printed value.
Tests used:
[1] = Aqueous solubility of the drug; type: physicochemical
[2] = In vitro dissolution test (microcentrifuge, PBS pH 6.5); type: physicochemical; details: PBS pH 6.5, 290 mOsm/kg, 37° C., 3000 μg/mL Drug 3 if all dissolved; Dispersion 4 before secondary drying; crystalline drug alone
Description: A sample of Dispersion 4 was evaluated before and after secondary drying in an in vitro dissolution test to determine the effect of drying on concentration enhancement. For this test, a sufficient amount of Dispersion 4 was added to microcentrifuge test tubes so that the concentration of Drug 3 would have been 3000 μg/mL had all of the drug had dissolved. The test was performed in duplicate. The tubes were placed in a 37° C. temperature-controlled chamber, and 1.8 mL PBS at pH 6.5 and 290 mOsm/kg was added to each tube. The samples were mixed using a vortex mixer for about 60 seconds. The samples were centrifuged at 13,000 G at 37° C. for 1 minute. The resulting supernatant solution was then sampled and diluted 1:6 (by volume) with methanol and then analyzed by high performance liquid chromatography (HPLC). The contents of each tube were mixed on the vortex mixer and allowed to stand undisturbed at 37° C. until the next sample was taken. Samples were collected at 4, 10, 20, 40, 90, and 1200 minutes. For comparison, crystalline Drug 3 alone was tested using the same procedures.
The concentrations of drug obtained in these samples were used to determine the maximum concentration of drug (MDC90) and the area under the concentration-versus-time curve (AUC90) during the initial 90 minutes.

solubility [1] [µg/mL]	AUC90 (area under the concentration-versus-time curve during the initial 90 minutes) [2] [µg·min/mL]	MDC90 (maximum concentration of drug during the initial 90 minutes) [2] [µg/mL]	SMILES
~80 (≈ 175 µM)			O=C(N[C@@H](Cc1ccccc1)[C@H](O)C(=O)N1C[C@@H](O)[C@@H](O)C1)c1cc2cc(Cl)ccc2[nH]1 [Drug 1, 5-chloro-1H-indole-2-carboxylic acid [(1S)-benzyl-(2R)-hydroxy-3-((3R,4S)-dihydroxy-pyrrolidin-1-yl-)-3-oxypropyl]amide]
< 0.1			CCOC(=O)N1c2ccc(C(F)(F)F)cc2[C@@H](N(Cc2cc(C(F)(F)F)cc(C(F)(F)F)c2)C(=O)OC)C[C@H]1CC [Drug 2, torcetrapib, reference compound]
~1600 (≈ 3130 µM)	9200	112	C=CCNC(=O)[C@H]1N(C(=O)[C@@H](O)[C@H](Cc2ccccc2)NC(=O)c2cccc(O)c2C)CSC1(C)C [Drug 3, (4R)—N-allyl-3-{(2S,3S)-2-hydroxy-3-[(3-hydroxy-2-methylbenzoyl)amino]-4-phenylbutanoyl}-5,5-dimethyl-1,3-thiazolidine-4-carboxamide]

From patent US8834929B2, “Drying of drug-containing particles” (Bend Research, Inc., priority 2006, dated 2014)
